Values joined by “and” are separate entries in the source; they are usually repeats but may differ in a detail not shown here. Equal entries are not always repeated.
System: KRAS-mutant PDC complex spheroid viability
Assay: Anticancer human tumor 186277-243-T-J2-PDC patient-derived colon adenocarcinoma cell line growth inhibition [KRAS2]
Conditions: for viability, T/C: stronger effect = lower value
In short: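 Combination screen of spheroid viability in tumor-cell co-cultures with endothelial (HUVEC) and mesenchymal stem cell stroma. Each agent was tested in half-log dilutions, topping at clinical Cmax or at 10 microM without a known Cmax.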

[1] = curve of first compound, second compound 0.1 µM
[2] = curve of first compound, second compound 0.316 µM
[3] = curve of first compound, second compound 1 µM
[4] = curve of first compound, second compound 3.16 µM
[5] = curve of first compound, second compound 10 µM
[6] = second compound 0.1 µM, first compound 0.01 µM
[7] = second compound 0.1 µM, first compound 0.0316 µM
[8] = second compound 0.1 µM, first compound 0.1 µM
[9] = second compound 0.1 µM, first compound 0.316 µM
[10] = second compound 0.1 µM, first compound 1 µM
[11] = second compound 0.1 µM, first compound 3.16 µM
[12] = second compound 0.316 µM, first compound 0.01 µM
[13] = second compound 0.316 µM, first compound 0.0316 µM
[14] = second compound 0.316 µM, first compound 0.1 µM
[15] = second compound 0.316 µM, first compound 0.316 µM
[16] = second compound 0.316 µM, first compound 1 µM
[17] = second compound 0.316 µM, first compound 3.16 µM
[18] = second compound 1 µM, first compound 0.01 µM
[19] = second compound 1 µM, first compound 0.0316 µM
[20] = second compound 1 µM, first compound 0.1 µM
[21] = second compound 1 µM, first compound 0.316 µM
[22] = second compound 1 µM, first compound 1 µM
[23] = second compound 1 µM, first compound 3.16 µM
[24] = second compound 3.16 µM, first compound 0.01 µM
[25] = second compound 3.16 µM, first compound 0.0316 µM
[26] = second compound 3.16 µM, first compound 0.1 µM
[27] = second compound 3.16 µM, first compound 0.316 µM
[28] = second compound 3.16 µM, first compound 1 µM
[29] = second compound 3.16 µM, first compound 3.16 µM
[30] = second compound 10 µM, first compound 0.01 µM
[31] = second compound 10 µM, first compound 0.0316 µM
[32] = second compound 10 µM, first compound 0.1 µM
[33] = second compound 10 µM, first compound 0.316 µM
[34] = second compound 10 µM, first compound 1 µM
[35] = second compound 10 µM, first compound 3.16 µM
[36] = second compound 0.1 µM, first compound 0.000316 µM
[37] = second compound 0.1 µM, first compound 0.001 µM
[38] = second compound 0.1 µM, first compound 0.00316 µM
[39] = second compound 0.316 µM, first compound 0.000316 µM
[40] = second compound 0.316 µM, first compound 0.001 µM
[41] = second compound 0.316 µM, first compound 0.00316 µM
[42] = second compound 1 µM, first compound 0.000316 µM
[43] = second compound 1 µM, first compound 0.001 µM
[44] = second compound 1 µM, first compound 0.00316 µM
[45] = second compound 3.16 µM, first compound 0.000316 µM
[46] = second compound 3.16 µM, first compound 0.001 µM
[47] = second compound 3.16 µM, first compound 0.00316 µM
[48] = second compound 0.1 µM, first compound 10 µM
[49] = second compound 0.316 µM, first compound 10 µM
[50] = second compound 1 µM, first compound 10 µM
[51] = second compound 3.16 µM, first compound 10 µM
[52] = second compound 10 µM, first compound 10 µM
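For viability, T/C in this document: viability read after seven days of compound exposure; 100% = DMSO vehicle-treated spheroids so lower means less viable.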

With `CC(=O)OC12COC1CC(O)C1(C)C(=O)C(O)C3=C(C)C(OC(=O)C(O)C(NC(=O)OC(C)(C)C)c4ccccc4)CC(O)(C(OC(=O)c4ccccc4)C21)C3(C)C` (stereo unspecified) + COc1cc2nc(C)nc(NC(C)c3cc(N)cc(C(F)(F)F)c3)c2cc1OC1CCOC1 the IC50 [1] was < 10 nM, the IC50 [2] was < 10 nM and the IC50 [3] was < 10 nM. For the same compound, the IC50 [4] was < 10 nM, the IC50 [5] was < 10 nM and the viability, T/C [6] was 4.45%. For the same compound, the viability, T/C [7] was 5.2%, the viability, T/C [8] was 2.78% and the viability, T/C [9] was 2.85%. It also gave a viability, T/C [10] of 2.91%, a viability, T/C [11] of 3.62% and a viability, T/C [12] of 4.29%. The viability, T/C [13] was 3.35%, the viability, T/C [14] was 2.81% and the viability, T/C [15] was 2.36%. For the same compound, the viability, T/C [16] was 2.72%, the viability, T/C [17] was 2.69% and the viability, T/C [18] was 3.08%. The viability, T/C [19] was 4.27%, the viability, T/C [20] was 3.44% and the viability, T/C [21] was 3.47%. The viability, T/C [22] was 3.46%, the viability, T/C [23] was 2.96% and the viability, T/C [24] was 3.01%. The viability, T/C [25] was 2.78%, the viability, T/C [26] was 2.73% and the viability, T/C [27] was 2.51%. It also gave a viability, T/C [28] of 2.54%, a viability, T/C [29] of 2.73% and a viability, T/C [30] of 3.2%. The viability, T/C [31] was 3.03%, the viability, T/C [32] was 2.84% and the viability, T/C [33] was 3%. It also gave a viability, T/C [34] of 2.42% and a viability, T/C [35] of 2.82%.
`CN(C)C/C=C/C(=O)Nc1cc2c(Nc3ccc(F)c(Cl)c3)ncnc2cc1O[C@H]1CCOC1` was tested, and the viability, T/C (compound 0.000316 µM) was 101% [middle of 5 runs], the viability, T/C (compound 0.00316 µM) was 101% [middle of 5 runs] and the viability, T/C (compound 0.01 µM) was 108% [middle of 5 runs]. The viability, T/C (compound 0.0316 µM) was 120% (3×) and 114% and 105%, the viability, T/C (compound 0.1 µM) was 111% [middle of 5 runs] and the IC50 (curve of compound) was > 100 nM.
In the case of `CC(C)n1nc(-c2ccc3oc(N)nc3c2)c2c(N)ncnc21` + C=CC(=O)N1CCN(c2nc(=O)n(-c3c(C)ccnc3C(C)C)c3nc(-c4c(O)cccc4F)c(F)cc23)C(C)C1, the IC50 [1] is reported as 12.6 nM, the IC50 [2] is reported as 17.6 nM and the IC50 [3] is reported as 9.05 nM. The IC50 [4] was 4.66 nM, the IC50 [5] was < 0.316 nM and the viability, T/C [36] was 94.8%. It also gave a viability, T/C [37] of 93.1%, a viability, T/C [38] of 86.1% and a viability, T/C [6] of 52.6%. The viability, T/C [7] was 32.7%, the viability, T/C [8] was 19.5% and the viability, T/C [39] was 113%. The viability, T/C [40] was 103%, the viability, T/C [41] was 87.7% and the viability, T/C [12] was 65.6%. The viability, T/C [13] was 34.2%, the viability, T/C [14] was 18.9% and the viability, T/C [42] was 97.5%. The viability, T/C [43] was 107%, the viability, T/C [44] was 75.8% and the viability, T/C [18] was 48.9%. The viability, T/C [19] was 27.3%, the viability, T/C [20] was 20.1% and the viability, T/C [45] was 98%. For the same compound, the viability, T/C [46] was 89.4%, the viability, T/C [47] was 58.6% and the viability, T/C [24] was 31.1%. For the same compound, the viability, T/C [25] was 20.1%, the viability, T/C [26] was 13.9% and the viability, T/C (second compound 10 µM, first compound 0.000316 µM) was 45.9%. It also gave a viability, T/C (second compound 10 µM, first compound 0.001 µM) of 44.6%, a viability, T/C (second compound 10 µM, first compound 0.00316 µM) of 34.7% and a viability, T/C [30] of 16.9%. The viability, T/C [31] was 14.7% and the viability, T/C [32] was 7.97%.
For `COc1cc(Nc2ncc3c(n2)-c2ccc(Cl)cc2C(c2c(F)cccc2OC)=NC3)ccc1C(=O)O` + COc1cc2nc(C)nc(NC(C)c3cc(N)cc(C(F)(F)F)c3)c2cc1OC1CCOC1, the IC50 [1] was < 31.6 nM, the IC50 [2] was < 31.6 nM and the IC50 [3] was < 31.6 nM. The IC50 [4] was < 31.6 nM, the IC50 [5] was < 31.6 nM and the viability, T/C [7] was 30.3%. For the same compound, the viability, T/C [8] was 29%, the viability, T/C [9] was 26.4% and the viability, T/C [10] was 29.2%. It also gave a viability, T/C [11] of 38.8%, a viability, T/C [48] of 38.7% and a viability, T/C [13] of 26.8%. For the same compound, the viability, T/C [14] was 27.7%, the viability, T/C [15] was 26.1% and the viability, T/C [16] was 27.4%. It also gave a viability, T/C [17] of 33.7%, a viability, T/C [49] of 36.6% and a viability, T/C [19] of 26.8%. For the same compound, the viability, T/C [20] was 24.7%, the viability, T/C [21] was 23.5% and the viability, T/C [22] was 25.7%. It also gave a viability, T/C [23] of 31.3%, a viability, T/C [50] of 34.2% and a viability, T/C [25] of 22.2%. It also gave a viability, T/C [26] of 22.6%, a viability, T/C [27] of 22.1% and a viability, T/C [28] of 20.6%. It also gave a viability, T/C [29] of 24.3%, a viability, T/C [51] of 22.4% and a viability, T/C [31] of 14.1%. It also gave a viability, T/C [32] of 17.8%, a viability, T/C [33] of 10.2% and a viability, T/C [34] of 7.56%. For the same compound, the viability, T/C [35] was 14% and the viability, T/C [52] was 7.41%.
With `CN(C)C/C=C/C(=O)Nc1cc2c(Nc3ccc(F)c(Cl)c3)ncnc2cc1O[C@H]1CCOC1` + C=CC(=O)N1CCN(c2nc(OCC3CCCN3C)nc3c2CCN(c2cccc4cccc(C)c24)C3)CC1CC#N the IC50 (curve of first compound, second compound 0.0316 µM) was > 100 nM, the IC50 [1] was > 100 nM and the IC50 [2] was > 100 nM. For the same compound, the IC50 [3] was > 100 nM, the IC50 [4] was < 0.316 nM and the viability, T/C (second compound 0.0316 µM, first compound 0.000316 µM) was 98.6%. It also gave a viability, T/C (second compound 0.0316 µM, first compound 0.001 µM) of 106%, a viability, T/C (second compound 0.0316 µM, first compound 0.00316 µM) of 100% and a viability, T/C (second compound 0.0316 µM, first compound 0.01 µM) of 103%. It also gave a viability, T/C (second compound 0.0316 µM, first compound 0.0316 µM) of 118%, a viability, T/C (second compound 0.0316 µM, first compound 0.1 µM) of 112% and a viability, T/C [36] of 109%. For the same compound, the viability, T/C [37] was 95.5%, the viability, T/C [38] was 94% and the viability, T/C [6] was 117%. The viability, T/C [7] was 110%, the viability, T/C [8] was 105% and the viability, T/C [39] was 102%. It also gave a viability, T/C [40] of 102%, a viability, T/C [41] of 103% and a viability, T/C [12] of 109%. The viability, T/C [13] was 111%, the viability, T/C [14] was 105% and the viability, T/C [42] was 94.6%. It also gave a viability, T/C [43] of 94.5%, a viability, T/C [44] of 112% and a viability, T/C [18] of 106%. The viability, T/C [19] was 98.7%, the viability, T/C [20] was 105% and the viability, T/C [45] was 0.97%. It also gave a viability, T/C [46] of 0.41%, a viability, T/C [47] of 0.31% and a viability, T/C [24] of 0.31%. The viability, T/C [25] was 0.23% and the viability, T/C [26] was 0.38%.
With `CC(C)NCC(C(=O)N1CCN(c2ncnc3c2C(C)CC3O)CC1)c1ccc(Cl)cc1` (stereo unspecified) + CNCc1ccccc1-c1csc(C(C)Nc2nc(C)nc3cc(OC)c(OC)cc23)c1 the IC50 [1] was 585 nM, the IC50 [2] was 469 nM and the IC50 [3] was 298 nM. The IC50 [4] was < 31.6 nM, the IC50 [5] was < 31.6 nM and the viability, T/C [7] was 111%. The viability, T/C [8] was 106%, the viability, T/C [9] was 61.2% and the viability, T/C [10] was 37.8%. For the same compound, the viability, T/C [11] was 24.1%, the viability, T/C [48] was 11.2% and the viability, T/C [13] was 121%. The viability, T/C [14] was 96.6%, the viability, T/C [15] was 60.3% and the viability, T/C [16] was 29.4%. The viability, T/C [17] was 19.6%, the viability, T/C [49] was 10.6% and the viability, T/C [19] was 109%. For the same compound, the viability, T/C [20] was 92.4%, the viability, T/C [21] was 44.9% and the viability, T/C [22] was 24.1%. The viability, T/C [23] was 13.3%, the viability, T/C [50] was 8.81% and the viability, T/C [25] was 0.41%. It also gave a viability, T/C [26] of 9.82%, a viability, T/C [27] of 0.48% and a viability, T/C [28] of 1.02%. For the same compound, the viability, T/C [29] was 0.58%, the viability, T/C [51] was 0.47% and the viability, T/C [31] was 0.14%. It also gave a viability, T/C [32] of 0.12%, a viability, T/C [33] of 0.12% and a viability, T/C [34] of 0.12%. The viability, T/C [35] was 0.13% and the viability, T/C [52] was 0.2%.
